Results published in patent US7763615B2, “Ecteinascidin analogs for use as antitumour agents” (priority 2001, dated 2010).
Where two headings read alike, the source gives them in different places.

Columns and labels:
[1] = tested on: DU145; experiment: cells; format: cell-based; details: for CC50: read-out: LC50
Summary of the method: (§1)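 Human tumour lines grown in RPMI 1640 with 10% FBS were seeded at 5×10^3 cells per well, left 18 hours to attach, then exposed to samples (10 to 10^−8 μg/ml) for 48 hours. Growth was quantified by sulphorhodamine B staining of TCA-fixed cells, with absorbance read at 490 nm.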

[2] = tested on: K562; experiment: cells; format: cell-based; details: for CC50: read-out: LC50
Summary of the method: as §1

[3] = tested on: A549; experiment: cells; format: cell-based; details: for GI50: read-out: GI50; for CC50: read-out: LC50
Summary of the method: as §1

[4] = tested on: LOVO; experiment: cells; format: cell-based; details: LOVO; for CC50: read-out: LC50
Summary of the method: as §1

[5] = tested on: HT29; experiment: cells; format: cell-based; details: for CC50: read-out: LC50
Summary of the method: as §1

[6] = tested on: PANC-1; experiment: cells; format: cell-based; details: for CC50: read-out: LC50
Summary of the method: as §1

[7] = tested on: MEL-28; experiment: cells; format: cell-based; details: for CC50: read-out: LC50
Summary of the method: as §1

[8] = tested on: IGROV-ET; experiment: cells; format: cell-based; details: IGROV-ET; for CC50: read-out: LC50
Summary of the method: as §1

[9] = tested on: IGROV; experiment: cells; format: cell-based
Summary of the method: as §1

[10] = tested on: LNCAP; experiment: cells; format: cell-based; details: LNCAP; for CC50: read-out: LC50
Summary of the method: as §1

[11] = tested on: LOVO-DOX; experiment: cells; format: cell-based; details: LOVO-DOX; for CC50: read-out: LC50
Summary of the method: as §1

[12] = tested on: SK-BR3; experiment: cells; format: cell-based; details: for CC50: read-out: LC50
Summary of the method: as §1

[13] = tested on: H-MEC-1; experiment: Inhibition of cells growth by colorimetric assay (SRB), H-MEC-1; format: cell-based; details: for CC50: read-out: LC50
Summary of the method: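 Absorbance at 490 nm of sulphorhodamine B bound by TCA-fixed cells gives the growth readout after 48 h continuous exposure to test samples (10 to 10^−8 μg/ml). Cells were seeded at 5×10^3 per well in RPMI 1640/10% FBS and allowed 18 h to attach first.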

[14] = tested on: H9c2 (2-1), normal rat cardiac muscle cells; details: 24 h
Method: (§2) In order to assess the cytotoxicity of the drugs to normal cells, we used 96 well plates plated at a density of 5000 cells per well (except for the FDC-P1 which were plated at 12,000 cells per well) with normal cell lines (ATCC, Table 1) maintained as per the directions of the ATCC: AML-12, normal mouse liver cells; NRK-52E, normal rat kidney cells; L8, normal rat skeletal muscle cells; FDC-P1, normal mouse myelogeous stem cells; and H9c2 (2-1), normal rat cardiac muscle cells. The cells in each plate were permitted to settle overnight before adding the test drug.
(§3) To each well (100 μl medium) 10 μl of drug in media was added at varying concentrations (1×10-10-0.01 mg/ml final concentration) and further incubated overnight at 37° C. with 5% CO2. After 24 h the following assays were performed. All experiments were repeated at least 3 times and were assayed in duplicate.
(§4) MTS assay (CellTiter 96 aqueous) was performed according to the manufacturer's (Promega) directions (for all cell types). Cell viability (mitochondrial activity) is determined via enzymatic conversion of the formazan substrate.

[15] = biological target: CYP3A4 (Homo sapiens, UniProt P08684); details: 30 min, 10 µM
Sequence of CYP3A4 (P08684 whole entry): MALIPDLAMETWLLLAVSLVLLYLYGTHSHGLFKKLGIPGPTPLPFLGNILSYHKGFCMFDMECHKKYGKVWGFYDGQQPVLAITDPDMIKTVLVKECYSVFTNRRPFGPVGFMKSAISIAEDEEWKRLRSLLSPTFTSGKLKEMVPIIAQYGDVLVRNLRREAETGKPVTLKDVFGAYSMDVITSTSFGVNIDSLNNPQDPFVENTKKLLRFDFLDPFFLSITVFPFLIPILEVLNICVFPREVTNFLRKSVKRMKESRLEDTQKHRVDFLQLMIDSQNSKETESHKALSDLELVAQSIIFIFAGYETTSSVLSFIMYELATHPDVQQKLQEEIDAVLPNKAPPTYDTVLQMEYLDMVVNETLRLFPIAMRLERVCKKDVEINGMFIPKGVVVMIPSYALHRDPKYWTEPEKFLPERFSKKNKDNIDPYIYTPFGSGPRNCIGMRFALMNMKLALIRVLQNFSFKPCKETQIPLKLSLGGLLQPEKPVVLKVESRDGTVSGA
Method: For CYP3A4 inhibition assay, the compound were tested at 10 μM in duplicate with a 0.25% final concentration of both methanol and acetonitrile in presence of the fluorescent substrate BFC (50 μM). The conversion of the BFC (7-benzyloxy-4-trifluoromethylcoumarin) in HFC (7-hydroxy-4-trifluoromethylcoumarin) was determined spectro-fluormetry after incubation with the enzyme during 30 min at 37° C.
For both assays, the fluorescent intensity measured at t=0 is subtracted from that measured after the appropriate incubation time. The ratio of signal-to-noise is calculated by comparing the fluorescence in incubations containing the test compound to the control samples containing the same solvent vehicle. The percent of control activity is calculated and reported as percent inhibition.

[16] = tested on: AML-12, normal mouse liver cells; details: 24 h
Method: as §2, §3, §4

[17] = tested on: FDC-P1, normal mouse myelogeous stem cells; details: 24 h
[18] = tested on: L8, normal rat skeletal muscle cells; details: 24 h
Method: as §2, §3, §4

[19] = tested on: NRK-52E, normal rat kidney cells; details: 24 h
Method: as §2, §3, §4

[20] = biological target: T1, CYP2D6 (Homo sapiens, UniProt P10635); details: 450 min, 10 µM
T1 sequence (P10635 whole entry): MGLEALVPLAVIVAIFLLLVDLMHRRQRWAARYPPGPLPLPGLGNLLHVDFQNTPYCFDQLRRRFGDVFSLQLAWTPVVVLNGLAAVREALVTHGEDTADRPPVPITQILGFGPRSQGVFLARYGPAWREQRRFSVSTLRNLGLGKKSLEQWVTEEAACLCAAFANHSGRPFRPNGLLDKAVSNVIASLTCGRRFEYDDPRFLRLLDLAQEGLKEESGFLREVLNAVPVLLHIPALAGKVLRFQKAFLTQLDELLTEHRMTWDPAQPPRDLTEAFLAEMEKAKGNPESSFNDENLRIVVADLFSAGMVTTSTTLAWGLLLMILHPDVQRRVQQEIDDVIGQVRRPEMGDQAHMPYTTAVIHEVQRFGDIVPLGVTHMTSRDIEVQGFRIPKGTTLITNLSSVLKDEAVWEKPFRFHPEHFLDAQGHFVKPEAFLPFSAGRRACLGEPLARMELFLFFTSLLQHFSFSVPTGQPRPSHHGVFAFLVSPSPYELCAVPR

[21] = tested on: SK-OV3; experiment: Inhibition of cells growth by colorimetric assay (SRB), SK-OV3; format: cell-based; details: for CC50: read-out: LC50
Summary of the method: as §1

[22] = 60 min
[23] = tested on: (HEPG2); details: human, 24 h, 30 μM
[24] = s9, 60 min, 1 μM
[25] = biological target: T1, CYP2D6; experiment: in vitro; details: CYP2D6 (% inhibition)
[26] = tested on: B16 melanoma; details: mice, U.S. Pat. No. 5,149,804; cited from earlier work
[27] = tested on: P388 lymphoma; details: mice, U.S. Pat. No. 5,149,804; cited from earlier work
[28] = tested on: Lewis lung carcinoma; details: mice, U.S. Pat. No. 5,149,804; cited from earlier work
[29] = H-MEC-1, 48 hours exposure, SRB

## COc1c(C)cc2c(c1O)[C@@H]1C3[C@@H]4SC[C@]5(NC(C)Cc6c5[nH]c5ccc(F)cc65)C(=O)COC[C@@H](c5c6c(c(C)c(OC(C)=O)c54)OCO6)N3[C@@H](O)[C@H](C2)N1C (stereo partly shown) [Compound 42]
[1]; DU145, 48 hours exposure, SRB
  GI50: 0.00351 µM
  TGI: 7.97E−09 Molar
  CC50: 0.0127 µM
[2]; K562, 48 hours exposure, SRB
  GI50: 0.00477 µM
  TGI: 9.15E−09 Molar
  CC50: 2.81 µM
[3]; A549, 48 hours exposure, SRB
  TGI: 4.09E−08 Molar
  GI50: 0.022 µM
  CC50: 0.0759 µM
[4]; 48 hours exposure, SRB
  GI50: 0.0135 µM
  TGI: 4.37E−08 Molar
  CC50: 0.127 µM
[5]; HT29, 48 hours exposure, SRB
  GI50: 0.0341 µM
  TGI: 1.42E−07 Molar
  CC50: 12.7 µM
[6]; PANC-1, 48 hours exposure, SRB
  GI50: 0.0169 µM
  TGI: 8.25E−08 Molar
  CC50: 12.7 µM
[7]; MEL-28, 48 hours exposure, SRB
  GI50: 0.000404 µM
  TGI: 9.77E−10 Molar
  CC50: 0.00619 µM
[8]; 48 hours exposure, SRB
  GI50: 0.0432 µM
  TGI: 9.42E−08 Molar
  CC50: 12.7 µM
[9]; 48 hours exposure, SRB
  GI50: 0.00244 µM
  TGI: 5.12E−09 Molar
[9]; read-out: LC50, 48 hours exposure, SRB
  CC50: 0.0107 µM
[10]; 48 hours exposure, SRB
  GI50: 0.00374 µM
  TGI: 6.61E−09 Molar
  CC50: 0.0117 µM
[11]; 48 hours exposure, SRB
  GI50: 0.0459 µM
  TGI: 2.05E−07 Molar
  CC50: 12.7 µM
[12]; SK-BR3, 48 hours exposure, SRB
  GI50: 0.00663 µM
  TGI: 2.44E−08 Molar
  CC50: 0.0873 µM
[13]; [29]
  GI50: 0.0404 µM
  TGI: 2.47E−07 Molar
  CC50: 12.7 µM
[14]
  Heart: 1.42E−07
[15]
  CYP3A4 (% inhibition): 78 % inhibition
[16]
  Liver: 1.86E−07
[17]
  Myelo: 6.41E−08
[18]
  Skeletal: 3.37E−08
[19]
  Kidney: 1.12E−09
[20]
  CYP2D6 (% inhibition): 19 % inhibition
[21]; SK-OV3, 48 hours exposure, SRB
  GI50: 0.00737 µM
  TGI: 7.92E−07 Molar
  CC50: 12.7 µM
[22]
  log D n-Octanol-Dulbecco's PBS pH 7.4: >4.8
other
  Solubility Dulbecco's PBS pH 7.4: 10.37 μM
[23]
  Cell Viability (% inhibition): 67 % inhibition
[24]
  Human Liver S9 Metabolic Stability (% remaining): 5 % remaining

## COc1c(C)cc2c(c1O)[C@@H]1C3[C@@H]4SC[C@]5(NC(C)Cc6c5[nH]c5ccccc65)C(=O)COC[C@@H](c5c6c(c(C)c(OC(C)=O)c54)OCO6)N3[C@@H](O)[C@H](C2)N1C (stereo partly shown) [Compound 44]
[1]; DU145
  GI50: 0.00654 µM
  TGI: 1.18E−08
  CC50: ≥ 13 µM
[2]; K562
  GI50: 0.00394 µM
  TGI: 9.38E−09
  CC50: 0.107 µM
[3]; A549
  TGI: 4.76E−08
  GI50: 0.0274 µM
  CC50: 0.0823 µM
[4]
  GI50: 0.0271 µM
  TGI: 5.10E−08
  CC50: 0.0961 µM
[5]; HT29
  GI50: 0.0598 µM
  TGI: 4.59E−07
  CC50: ≥ 13 µM
[6]; PANC-1
  GI50: 0.0567 µM
  TGI: 1.55E−07
  CC50: ≥ 13 µM
[7]; MEL-28
  GI50: 0.00263 µM
  TGI: 5.22E−09
  CC50: 0.0103 µM
[8]
  GI50: 0.0285 µM
  TGI: 7.06E−08
  CC50: 0.13 µM
[9]
  GI50: 0.00429 µM
  TGI: 1.22E−08
[9]; read-out: LC50
  CC50: 0.093 µM
[10]
  GI50: 0.0043 µM
  TGI: 8.84E−09
  CC50: 0.0311 µM
[11]
  GI50: 0.091 µM
  TGI: 8.53E−07
  CC50: ≥ 13 µM
[12]; SK-BR3
  GI50: 0.0127 µM
  TGI: 4.27E−08
  CC50: 0.177 µM
[13]; H-MEC-1
  GI50: 0.0753 µM
  TGI: 1.31E−06
  CC50: ≥ 13 µM
[14]
  Heart: 5.20E−06
[15]
  CYP3A4 (% inhibition): 72 % inhibition
[16]
  Liver: 4.33E−07
[17]
  Myelo: 1.21E−07
[18]
  Skeletal: 4.02E−08
[19]
  Kidney: 4.15E−07
[21]; SK-OV3
  GI50: 0.0375 µM
  TGI: 1.31E−07
  CC50: ≥ 13 µM
[22]
  log D n-Octanol-Dulbecco's PBS pH 7.4: >4.9
other
  Solubility Dulbecco's PBS pH 7.4: 20.69 μM
[23]
  Cell Viability (% inhibition): 73 % inhibition
[24]
  Human Liver S9 Metabolic Stability (% remaining): 4 % remaining
[25]
  inhibition at 450 min, 10 µM: 16%

## COc1c(C)cc2c(c1O)[C@H]1N[C@@H](C2)[C@H](O)N2[C@H]1[C@@H]1SC[C@]3(NCCc4c3[nH]c3ccccc43)C(=O)OC[C@H]2c2c3c(c(C)c(OC(C)=O)c21)OCO3 [Ecteinascidin 722, ecteinascidin 722]
[26]
  in vivo protection against B16 melanoma: protect mice in vivo at very low concentrations
[27]
  in vivo protection against P388 lymphoma: protect mice in vivo at very low concentrations
[28]
  in vivo protection against Lewis lung carcinoma: protect mice in vivo at very low concentrations

## COc1c(C)cc2c(c1O)[C@@H]1C3[C@@H]4SC[C@]5(NCCc6c5[nH]c5ccccc65)C(=O)OC[C@@H](c5c6c(c(C)c(OC(C)=O)c54)OCO6)N3[C@@H](O)[C@H](C2)N1C (stereo partly shown) [Ecteinascidin 736, ecteinascidin 736]
[26]
  in vivo protection against B16 melanoma: protect mice in vivo at very low concentrations
[27]
  in vivo protection against P388 lymphoma: protect mice in vivo at very low concentrations
[28]
  in vivo protection against Lewis lung carcinoma: protect mice in vivo at very low concentrations
